According to patent US20220273806A1, “USE OF FLUORINE-CONTAINING COMPOUND-MODIFIED CATIONIC POLYMER AS DRUG CARRIER AND PREPARATION METHOD” (SOOCHOW UNIVERSITY, priority 2020, published 2022):
Read-outs that look alike come from different tables or passages of the source.

Assays:
abdomen skin of mice = details: 1 mg/mL, first three hours
Procedure: In vitro diffusion cell construction: the abdomen skin of mice was removed, the fat layer was shaved off, and the skin was fixed on a diffusion cell. 7.5 mL PBS was added to the diffusion cell below the skin, and 0.75 mL perfluoroheptanoic acid-modified chitosan-tranexamic acid and the same concentration of pure tranexamic acid solution were respectively added to the diffusion cell above the skin.
Measurement of tranexamic acid penetration rate: 500 μL of PBS was removed from the bottom of the diffusion cell at 0, 1, and 3 h and the same volume of PBS was supplemented. The content of tranexamic acid was detected under the following HPLC conditions: methanol and 0.05 mol/L KH2PO4-0. 2% H3PO4 solution (volume ratio 5:95) as mobile phase, flow rate 1.0 mL/min, and detection wavelength 210 nm, and the cumulative penetration was calculated.

C57BL/6 mice = details: mouse, in vivo
Procedure: Experimental designers used adriamycin, epirubicin (THP) and fluorescent dye rhodamine B as a bladder perfusion drug respectively to mix with chitosan (1% acetic acid aqueous solution) to prepare chitosan bladder perfusion drug systems. After 1 h of bladder perfusion, the bladder tissue was removed, frozen sections were prepared, the fluorescence intensity of the drug was analyzed with a confocal fluorescence microscope, and the distribution of the drug in the bladder tissue was investigated. […] In order to further investigate the biological safety of chitosan as a drug carrier for perfusion, the designers of the project perfused the mouse bladder with a 15 mg/ml chitosan aqueous solution, stopped the perfusion after 1 h, continued to raise the mice under normal feeding conditions, and recorded the mice weight. […] After dissection, the bladder of the mice in the experimental group was compared with that of the mice in the control group.
Healthy C57BL/6 mice aged 10-12 weeks were divided into three groups, 8 mice/each group. The experimental group was perfused with 15 mg/ml fluorinated chitosan or 1% chitosan in aqueous acetic acid solution for 1 h, once a week for three weeks, and the blank control group was perfused with equal volume of double distilled water. […]

mouse eye = details: in vivo
Procedure: In order to evaluate the penetrating ability for the cornea, the cornea was subjected to immunofluorescence staining at different time points to observe the penetrating ability. Samples were taken 5 min, 15 min, 30 min, and 60 min after the drug with perfluoroheptanoic acid-modified chitosan was applied. Frozen sections were prepared, and the nuclei of the sections were stained and observed under a confocal microscope as shown in FIG. 4-7. Herein, the red is the fluorescence of the protein label, and the blue is the nucleus of the eye tissue.

Excerpt for Balb/c mice: Balb/c mice at week 6 in the hair prohibition period were selected, and on the day before treatment, the mice in the perfluoroheptanoic acid-modified chitosan-metformin group, free metformin group, and blank control group were removed of the equivalent hair on the back and photographed as shown in the figure. Each mouse was uniformly sprayed with the drug according to its own treatment method, and the drug was given once every two days, 100 microliters each time.

Molecule: CN(C)C(=N)N=C(N)N [Metformin, metformin]
- hair growth on the back (Balb/c mice; Day 0): No hair
- hair growth on the back (Balb/c mice; Day 11): No hair
- hair growth on the back (Balb/c mice; Day 13): No hair
- hair growth on the back (Balb/c mice; Day 17): No hair

Molecule: NC[C@H]1CC[C@H](C(=O)O)CC1 [pure tranexamic acid, tranexamic acid]
- cumulative penetration of tranexamic acid (abdomen skin of mice): substantially does not penetrate

Molecule: chitosan
- bladder HE staining and CD45 and Ki67 immunofluorescence (C57BL/6 mice): severe inflammatory stress and congestion and edema
- bladder HE staining and CD45 and Ki67 immunofluorescence, mucosal and epithelial damage (C57BL/6 mice): severe inflammatory stress and congestion and edema

Molecule: free protein: bovine serum albumin labeled Cy5.5 without fluorine-containing chitosan
- penetration into the corneal epithelial cells (mouse eye): substantially does not enter
